One block for each compound: values may come before it.
What was measured:
[1] = Dissolution of crystalline lovastatin and lovastatin adsorbate in 0.02M hydrochloric acid; format: physicochemical
Experimental: 0.2 g of lovastatin was dissolved in a mixture of 10 ml trichloromethane and 40 ml diisopropyl ether. 2 g of a the SYLOID® AL1 was added to the solution. Subsequently the solvent was removed by evaporation.

[2] = Dissolution of crystalline simvastatin and simvastatin adsorbate in 0.02M hydrochloric acid; format: physicochemical
Experimental: 0.2 g of simvastatin was dissolved in 50 ml of dichloromethane. 2 g of a the SYLOID® AL1 was added to the solution. Subsequently the solvent was removed by evaporation. The sample was analysed using X-ray powder diffraction (XRPD). Using XRPD it was confirmed that the API in the product was amorphous. The use of dichloromethane as the solvent for simvastatin and SYLOID® AL1 as the carrier gives the adsorbate according to the invention.

[3] = Dissolution of crystalline tadalafil, tadalafil adsorbate and precipitates on carriers; format: physicochemical; conditions: 20 mM phosphate buffer pH 6.9
Experimental: The carriers comprising tadalafil have been prepared as described in example 1.
0.1 g of tadalafil was dissolved in 20 ml of dichloromethane. 5 ml of the resulting solution was added to 0.25 g of a solid support (Aerosil® 380, Al2O3, MgO, TiO2). Subsequently the solvent was removed by evaporation.

[4] = crystalline solid; term defined as less or equal to 0.1 mg/ml; cited from earlier work

Amount dissolved ([1]; 2 min): 0.298 µg/mL | Amount dissolved ([1]; 5 min): 0.403 µg/mL | Amount dissolved ([1]; 10 min): 0.418 µg/mL | Amount dissolved ([1]; 15 min): 0.501 µg/mL | Amount dissolved ([1]; 25 min): 0.625 µg/mL | Amount dissolved ([1]; 40 min): 0.523 µg/mL | Amount dissolved ([1]; 60 min): 0.62 µg/mL | Amount dissolved ([2]; 2 min): 0.848 µg/mL | Amount dissolved ([2]; 5 min): 1.667 µg/mL | Amount dissolved ([2]; 10 min): 1.853 µg/mL | Amount dissolved ([2]; 15 min): 1.859 µg/mL | Amount dissolved ([2]; 25 min): 2.031 µg/mL | Amount dissolved ([2]; 40 min): 2.145 µg/mL | Amount dissolved ([2]; 60 min): 2.175 µg/mL
Structure (SMILES): CC[C@H](C)C(=O)O[C@H]1C[C@@H](C)C=C2C=C[C@H](C)[C@H](CC[C@@H]3C[C@@H](O)CC(=O)O3)[C@H]21 [Crystalline lovastatin, lovastatin]

Amount dissolved ([3]; 2 min): 2.9 µg/mL | Amount dissolved ([3]; 5 min): 14.6 µg/mL | Amount dissolved ([3]; 10 min): 24.2 µg/mL | Amount dissolved ([3]; 15 min): 27.0 µg/mL | Amount dissolved ([3]; 25 min): 32.9 µg/mL | Amount dissolved ([3]; 40 min): 34.4 µg/mL
Structure (SMILES): CN1CC(=O)N2[C@H](c3ccc4c(c3)OCO4)c3[nH]c4ccccc4c3C[C@@H]2C1=O [Crystalline tadalafil, (6R,12aR)-6-(1,3-Benzodioxol-5-yl)-2,3,6,7,12,12a-hexahydro-2-methyl-pyrazino[1′,2′:1,6]pyrido[3,4-b]indole-1,4-dione]
solubility in water [4]: practically insoluble in water

— patent publication US20120088774A1, “ACTIVE PHARMACEUTICAL INGREDIENT ADSORBED ON SOLID SUPPORT” (LEK PHARMACEUTICALS D.D., priority 2009, published 2012)
